From US8883410B2, “Method for determining the stability of organic methyleneamines in the presence of semicarbazide-sensitive amine oxidase” (Sanofi, priority 2007, dated 2014)

Molecular target: T1, human SSAO T1 (Gly27-Asn763), untagged (Homo sapiens, UniProt Q16853)
T1 construct: T1 (Gly27-Asn763) Representing the Enzyme Lacking the Membrane Anchoring Region; additional N-terminal Met (N); expressed in transfected cells; cell lysate
T1 sequence (Q16853 27-763): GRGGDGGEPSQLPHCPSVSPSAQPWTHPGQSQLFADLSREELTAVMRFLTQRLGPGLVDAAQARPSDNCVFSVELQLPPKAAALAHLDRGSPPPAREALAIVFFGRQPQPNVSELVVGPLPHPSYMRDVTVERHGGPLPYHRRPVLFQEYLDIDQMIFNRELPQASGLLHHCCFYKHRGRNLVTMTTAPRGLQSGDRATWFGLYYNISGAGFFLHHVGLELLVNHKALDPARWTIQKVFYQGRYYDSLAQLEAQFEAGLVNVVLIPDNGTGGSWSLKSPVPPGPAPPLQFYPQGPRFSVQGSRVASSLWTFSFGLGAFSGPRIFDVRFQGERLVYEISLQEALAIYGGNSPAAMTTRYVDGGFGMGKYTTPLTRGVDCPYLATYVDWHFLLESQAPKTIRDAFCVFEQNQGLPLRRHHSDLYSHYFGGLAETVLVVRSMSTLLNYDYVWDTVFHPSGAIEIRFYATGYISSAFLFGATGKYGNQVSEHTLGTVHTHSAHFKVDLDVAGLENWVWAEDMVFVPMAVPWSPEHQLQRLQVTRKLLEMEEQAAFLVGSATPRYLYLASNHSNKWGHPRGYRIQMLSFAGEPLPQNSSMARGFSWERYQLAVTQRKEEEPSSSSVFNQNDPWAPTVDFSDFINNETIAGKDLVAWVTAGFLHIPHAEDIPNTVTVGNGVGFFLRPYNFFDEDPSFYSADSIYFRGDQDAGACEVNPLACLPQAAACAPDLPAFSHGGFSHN
Experiment: Benzylamine stability in lysate of cells expressing T1 SSAO (untagged), LC/MS/MS
Type: in vitro ADME
Protocol: 3) T1 (Gly27-Asn763) Representing the Enzyme Lacking the Membrane Anchoring Region:
The expression constructs were prepared by cloning these PCR products into the pCDNA5-FRT-To-DEST vector (Invitrogen, Gateway System™). The forward and reverse DNA sequence of each construct was confirmed including expressed sequences and at least 100 base pairs either side of this. Stable cell lines for Flp-In CHO, Flp-In CHO T-Rex, and Flp-In HEK 293 (Invitrogen, Flp-In system™) were generated using these 6 constructs according to manufacturer's instructions. Cells were co-transfected with the regulatory vector, pOG44, and each of the pCDNA5-FRT-To-DEST constructs using Lipfectamine (Invitrogen) according to manufacturer's instructions. Thus, 18 cell lines were generated: CHO Flp-In full-length SSAO; CHO Flp-In full-length SSAO with C-terminal 6×HIS tag; CHO Flp-In T1 SSAO; CHO Flp-In T1 SSAO with C-terminal 6×HIS tag; CHO Flp-In T2 SSAO; CHO Flp-In T2 SSAO with C-terminal 6×HIS tag; CHO T-Rex Flp-In full-length SSAO; CHO T-Rex Flp-In full-length SSAO with C-terminal 6×HIS tag; CHO T-Rex Flp-In T1 SSAO; CHO T-Rex Flp-In T1 SSAO with C-terminal 6×HIS tag; CHO T-Rex Flp-In T2 SSAO; CHO Flp-In T2 SSAO with C-terminal 6×HIS tag; HEK 293 Flp-In full-length SSAO; HEK 293 Flp-In full-length SSAO with C-terminal 6×HIS tag; HEK 293 Flp-In T1 SSAO; HEK 293 Flp-In T1 SSAO with C-terminal 6×HIS tag; HEK 293 Flp-In T2 SSAO; HEK 293 Flp-In T2 SSAO with C-terminal 6×HIS tag.
Adherent CHO cells were cultured at 37° C., 5% CO2 in media containing Ham's F12, 10% fetal bovine serum, 2 mM L-glutamine, 1% Penicillin/Streptomycin, 300 μM hygromycin B. Adherent HEK 293 cells were cultured at 37° C., 5% CO2 in D-MEM (high glucose), 10% fetal bovine serum, 2 mM L-glutamine, and 200 μM hygromycin B. Stable transformants were identified by loss of zeocin resistance. Once the cells were 80% confluent, SSAO expression was induced by the addition of Tetracycline to 1 μg/mL. Following 18 hours, the cells were harvested using a trypsin treatment of 3 minutes, at room temperature. Cells were washed 3 times in phosphate buffered saline before flash freezing in liquid nitrogen.
For the preparation of cell lysate for activity testing, frozen cell pellets were resuspended in lysate buffer containing 10 mM Tris-HCl (pH 7.2), 150 mM NaCl, 1.5 mM MgCl2, 1% v/v NP-40 and incubated for 15 minutes on ice. Lysate was cleared by centrifugation 800×g for 10 minutes, 4° C. and stored in aliquots at −80° C. until use. Proteins were determined using Pierce Coomassie Protein Reagent, according to manufacturer's instructions.
For each assay run, 1 mL of cell lysate (1.5 mg/mL protein) was mixed with benzylamine to 2000 ng/mL final concentration. At each corresponding time point, […] the incubation mixture was transferred to a microcentrifuge tube (1.7 mL) and mixed with 50 μL of acetonitrile. The tubes were vortex mixed briefly to ensure complete mixing and then centrifuged at 10,000×g for 5 minutes. The supernatant was removed and 50 μL was transferred to an autosampler vial and mixed with 50 μL of water before LC/MS/MS analysis. Benzylamine remaining in the lysate was analyzed with LC/MS/MS method.
LC/MS/MS analysis was performed with a PE Sciex API 3000 mass spectrometer under the following conditions listed below and in Tables 1 and 2: […]

Compound: NCc1ccccc1 [Benzylamine]
- Benzylamine Remaining (%) (CHO Flp-In T-Rex lysate, tag One, 0 min): 100%
- Benzylamine Remaining (%) (CHO Flp-In T-Rex lysate, tag One, 10 min): 104%
- Benzylamine Remaining (%) (CHO Flp-In T-Rex lysate, tag One, 2 h): 92%
- Benzylamine Remaining (%) (CHO Flp-In lysate, tag None, 0 min): 100%
- Benzylamine Remaining (%) (CHO Flp-In lysate, tag None, 10 min): 109%
- Benzylamine Remaining (%) (CHO Flp-In lysate, tag None, 2 h): 103%
- Benzylamine Remaining (%) (HEK293 lysate, tag None, 0 min): 100%
- Benzylamine Remaining (%) (HEK293 lysate, tag None, 10 min): 105%
- Benzylamine Remaining (%) (HEK293 lysate, tag None, 2 h): 102%
